The values that follow come from the NIST ThermoML archive (doi:10.1021/je300111m).

For this data set the following is noted: Liquid.

“And” between values parts separate entries of the source, which are not always exact repeats. Identical values can stand only once. Numbers after ± are expanded uncertainties.

One may read the vapor or sublimation pressure as the pressure of vapour in equilibrium with the condensed phase. `CCC` [propane]: the “vapor or sublimation pressure” value by setting is: (243.23 K) 168 ± 2.8 kPa and 168.2 ± 2.8 kPa; (273.12 K) 473.5 ± 7.7 kPa.

As for `CCCC` [butane], the “vapor or sublimation pressure” value stood at 29.1 ± 0.5 kPa (243.03 K) and 210.8 ± 3.5 kPa (293.38 K).

Take `S` [hydrogen sulfide]: the “vapor or sublimation pressure” value runs as follows: (222.83 K) 167.3 ± 2.8 kPa; (243.02 K) 384 ± 6.2 kPa; (243.18 K) 380.2 ± 6.2 kPa; (243.2 K) 379.4 ± 6.2 kPa; (273.12 K) 1030.2 ± 17 kPa; (273.13 K) 1029.3 ± 17 kPa. The “vapor or sublimation pressure” value (293.43 K) is 1793.7 ± 29 kPa.
